# From US20070082916A1, “Fungicidal mixtures for controlling rice pathogens” (BASF AKTIENGESEELSCHAFT, priority 2003, published 2007)
# Tested on: Corticium sasakii
# Experiment: Activity against sheath blight on rice caused by Corticium sasakii (protective spray on potted rice plants)
# Format: in vivo
# Settings: individual active compound, 1 ppm in the spray liquor; rice cultivar Tai-Nong 67; evaluated after 11 days; untreated control 90% infection
# Method: 1% by weight of the emulsifier Uniperol® EL (wetting agent having emulsifying and dispersing action based on ethoxylated alkylphenols) was added to this solution, and the solution was diluted with water to the desired concentration.
# Use example—Activity against sheath blight on rice caused by Corticium sasakii
# The next day, oat grains infected with Corticium sasakii were placed into the pots (in each case 5 grains per pot). The plants were then placed in a chamber at 26° C. and maximum atmospheric humidity.
# Evaluation is carried out by determining the infected leaf areas in percent. These percentages were converted into efficacies.
# The efficacy (E) is calculated as follows using Abbot's formula: E=(1−α/β)·100 • α corresponds to the fungicidal infection of the treated plants in % and • β corresponds to the fungicidal infection of the untreated (control) plants in %
# An efficacy of 0 means that the infection level of the treated plants corresponds to that of the untreated control plants; an efficacy of 100 means that the treated plants are not infected.
row,Compound,Efficacy in % of the untreated control [%]
1,zinc ammoniate-ethylenebis(dithiocarbamate) [II.3],0
2,manganese-ethylenebis(dithiocarbamate)zinc complex [II.1],0
3,"CN(C)C(=S)SSC(=S)N(C)C [II.5, bis(dimethylthiocarbamoyl)disulfide]",0
4,manganese-ethylenebis(dithiocarbamate) [II.2],0

# Same assay, conditions: individual active compound, 4 ppm in the spray liquor; rice cultivar Tai-Nong 67; evaluated after 11 days; untreated control 90% infection
row,Compound,Efficacy in % of the untreated control [%]
1,CC1CCN(c2c(-c3c(F)cccc3Cl)c(Cl)nc3ncnn23)CC1 [A],0
2,"CC1CCN(c2c(-c3c(F)cc(F)cc3F)c(Cl)nc3ncnn23)CC1 [I, 5-chloro-7-(4-methylpiperidin-1-yl)-6-(2,4,6-trifluorophenyl)-[1,2,4]tri-azolo[1,5-a]pyrimidine]",33
3,CC(Nc1c(-c2c(F)cc(F)cc2F)c(Cl)nc2ncnn12)C(F)(F)F (centres unmarked) [B],67

# Same assay, conditions: individual active compound, 16 ppm in the spray liquor; rice cultivar Tai-Nong 67; evaluated after 11 days; untreated control 90% infection
row,Compound,Efficacy in % of the untreated control [%]
1,zinc ammoniate-ethylenebis(dithiocarbamate) [II.3],22
2,manganese-ethylenebis(dithiocarbamate)zinc complex [II.1],11
3,"CN(C)C(=S)SSC(=S)N(C)C [II.5, bis(dimethylthiocarbamoyl)disulfide]",0
4,manganese-ethylenebis(dithiocarbamate) [II.2],11
